Measurements reported in patent US12258574B2, “Methods and compositions for transducing lymphocytes and regulating the activity thereof” (Exuma Biotech Corp., priority 2016, dated 2025).

B1: MRB-CAR T1A: anti-Target 1 microenvironment restricted CAR; VH SEQ ID NO:281, Linker 1, VL SEQ ID NO:282; CD28 stalk/TM, ICΔ, CD3Z (protein)
chain: EVQLVQSGAEVKKPGATVKISCKVSGYSFWGATMNWIRQPPGKGLEWIGLIKPSNGGTSYNQKFKGRVTISADKSISTAYLQWSSLKASDTAMYYCAHGHYESYEAMDYWGQGTLVTVSSGGGGSGGGGSGGGGSDIQMTQSPSSLSASVGDRVTITCKASQDVVSAVAWYQQKPGQAPRLLIYWQDTRHTGVPSRFSGSGSGTEFTLTISSLQPDDFATYYCQEHFSPPLTFGQGTKVEIKFWVLVVVGGVLACYSLLVTVAFIIFWVRSKRSRLLHSDYMNMTPRRPGPTRKHYQAYAAARDFAAYRSRVKFSRSADAPAYQQGQNQLYNELNLGRREEYDVLDKRRGRDPEMGGKPRRKNPQEGLYNELQKDKMAEAYSEIGMKGERRRGKGHDGLYQGLSTATKDTYDALHMQALPPR
notes: anti-Target 1 microenvironment restricted CAR; CD28 stalk/TM, ICΔ, CD3Z

Assays:
[1] = 50-milliliter bolus; cited from earlier work
[2] = tested on: cathepsin B, L, S, K, V, and D; settings: 1 ml/mouse 1 M ip, 30 min post administration, n=3, vs PBS
Source text: Fortunately, the relative protease activity of cathepsin is higher at lower pH and lower at higher pH. Therefore, the measurement of intratumoral cathepsin activity can serve as a surrogate measure of the pH of the tumor microenvironment. To measure in vivo activities of cathepsin B, L, S, K, V, and D, the near-infrared ProSense 750 FAST probe (PerkinElmer) was used.
Mice were handled in accordance with Institutional Animal Care and Use Committee approved protocols. Subcutaneous (sc) Chinese Hamster Ovary (CHO) tumor xenografts were established in the hind flank of 12-14 week old female B-NSG mice (NOD-PrkdcscidIl2rgtm1/Bcgen (Beijing Biocytogen Co. Ltd.). Briefly, cultured CHO cells (ATCC, Manassas, VA) were washed in DPBS (ThermoFisher), counted, resuspended in cold DPBS and mixed with an appropriate volume of Matrigel ECM (Corning; final concentration 5 mg/mL) at a concentration of 1.5×10^6 cells/200 μl on ice.
Animals were prepared for injection using standard approved anesthesia with hair removal (Nair) prior to injection. 200 μl of the cell suspension in ECM was injected sc into the rear flanks of the mice. Once tumors were palpable, the tumors were measured using calipers 2 times/week. Tumor volume was calculated using the following equation: (longest diameter*shortest diameter^2)/2. […]

[3] = 1.5 hours post ip administration, n=3, relative to PBS-treated mice
Source text: Phenol red is a pH indicator which undergoes a pH-dependent color transition. […] A solution of phenol red has a yellow color at a pH of 6.4 or below, an orange color around pH 7.0, a red color around pH 7.4, and a purple color above pH 7.8.
The CHO xenograft tumor was excised from each mouse. The xenograft tumors were split into two halves with a scalpel and placed on a petri dish. The tumor tissue halves were then cut/sliced repeatedly using the scalpel. Water or 0.05% phenol red solution (50 mg phenol red/100 ml water) was added dropwise to each tumor half, respectively. The color was noted and images were taken of the treated tumor xenografts and of the phenol red solution remaining on the petri plate once the tumor xenograft samples were removed.

CHO-Target 1 cells = test: pH shift cytotoxicity assay / HCl switch RTCA killing assay (xCELLigence); type: cell-based; settings: added about 3 hours after effector cells, E/T 1:1
Procedure: The cytotoxic activity of transduced T cells before and after pH change by addition of NaHCO3 or NaOH was measured using the xCELLigence System. Briefly, one day before the experiment, target cells (CHO cells stably transfected with a construct to express Target 1 on the cell surface (CHO-Target 1 cells)), were seeded into a 96-well E-plate (ACEA; San Diego, CA) at 10,000 cells/well with X-VIVO 15 media containing 40 mM HEPES and 40 mM PIPES, pH 6.7. Cryopreserved effector cells previously transduced with either lentiviral particles containing the nucleic acid encoding T1B or C1 (T1BVP and C1VP, respectively) produced as discussed above, were thawed and cultured for two days in X-VIVO 15 media containing 100 IU/mL of IL-2 (R&D Systems, Minneapolis, MN). On the day of the experiment, cells transduced with T1BVP or C1VP were washed and resuspended in X-VIVO 15 media containing 40 mM HEPES and 40 mM PIPES, pH 6.7 and then added into the experimental wells at effector cell/target cell ratios (E/T) of 1:1.
Impedance readings measured on the xCELLigence System (ACEA) were taken every 5 minutes and reported as the Cell Index (CI) to quantitate cell confluency as a measure of cell proliferation/cell lysis. Approximately 3 hours after effector cell addition, 8 μl of 7.5% NaHCO3 or 14 μl of 0.5 M NaOH was added into the wells with X-VIVO 15 media containing 40 mM HEPES and 40 mM PIPES, pH 6.7 to increase the pH from 6.7 to 7.4. Impedance readings were continued for approximately 20 hours after effector cell addition. Percentage of specific cytolysis was calculated as follows ((CI Target+C1VP transduced effector T cells)−(CI Target+T1BVP transduced effector T cells))/(CI Target+C1VP transduced effector T cells)×100.
The cytotoxic activity of transduced T cells before and after pH change by addition of HCl was measured using the xCELLigence System. Briefly, one day before the experiment, CHO-Target 1 cells were seeded into a 96 well E-plate at 10,000 cells/well with X-VIVO 15 media containing 40 mM HEPES and 40 mM PIPES, pH 7.4. Cryopreserved effector cells previously transduced with either C1VP or T1BVP, were thawed and cultured for two days in X-VIVO 15 media containing 100 IU/mL of IL-2. On the day of the experiment, cells transduced with T1BVP or C1VP were washed and resuspended in X-VIVO 15 media containing 40 mM HEPES and 40 mM PIPES, pH 7.4 and then added into experimental wells at effector cell/target cell ratios (E/T) of 1:1.
Impedance readings were taken every 5 minutes and reported as the Cell Index (CI). […] Impedance readings were continued for approximately 20 hours after effector cell addition. Percentage of specific cytolysis was calculated as follows ((CI Target+C1VP transduced effector T cells)−(CI Target+T1BVP transduced effector T cells))/(CI Target C1VP)×100.

CHO-Target 1 = test: xCELLigence cytotoxicity of MRB-CAR T cells at pH 6.7 vs pH 7.4, CHO-Target 1; type: cell-based; settings: E/T 3:1, 1:1, 0.3:1; about 40 hours
Procedure: The cytotoxic activity of the candidate MRB-CARs against target cells expressing either Target 1 or Target 2 (CHO-Target 1 and CHO-Target 2, respectively) was analyzed at a pH of 7.4 (normal tissue) or a pH of 6.7 (reduced pH of a tumor microenvironment) by xCELLigence System (ACEA). Briefly, target cells expressing Target 1 or Target 2 were seeded to a 96-well E-plate at 20,000 cells/well with tumor conditional or normal medium one day before the experiment. Effector cells were rested for two days in human T cell medium containing 100 IU/mL of IL-2 and added into experimental wells containing Target cells at effector cell/target cell ratios (E/T) of 3:1, 1:1, and 0.3:1.
Impedance readings were taken every 5 minutes for approximately 40 hours after effector cell addition and impedance was reported as the Cell Index (CI). Percentage of specific cytolysis was calculated as follows ((CI Target+Control virus transduced effector T cells)−(CI Target+effector T cells transduced with CARs directed to Target 1 or Target 2))/(CI Target+Control virus transduced effector T cells)×100.

Molecule	rise of serum pH [1]	intratumoral cathepsin activity (RFU), surrogate of tumor microenvironment pH [2]	color of phenol red indicator on excised tumor tissue [3]	effect on cytotoxic activity of MRB-CAR T cells of raising media pH from 6.7 to 7.4 (CHO-Target 1 cells)	cytotoxic activity on target cells at pH 6.7 versus pH 7.4 (CHO-Target 1)
O=C([O-])O.[Na+] [sodium bicarbonate]	approximately 0.1 pH unit	decreased cathepsin activity	from yellow/orange to red	inhibited the cytotoxic activity	
B1					more effective at lysing target cells at a pH of 6.7 than at a pH of 7.4
